According to ChEMBL document CHEMBL1139109, “Further studies on the binding of N1-substituted tryptamines at h5-HT6 receptors” (Bioorg Med Chem Lett, 2007):

target: 5-hydroxytryptamine receptor 6 (Homo sapiens, UniProt P50406); test: Displacement of [3H] LSD from human 5HT6 receptor expressed in HEK293 cells; assay type: cell-based
Sequence (P50406 whole entry): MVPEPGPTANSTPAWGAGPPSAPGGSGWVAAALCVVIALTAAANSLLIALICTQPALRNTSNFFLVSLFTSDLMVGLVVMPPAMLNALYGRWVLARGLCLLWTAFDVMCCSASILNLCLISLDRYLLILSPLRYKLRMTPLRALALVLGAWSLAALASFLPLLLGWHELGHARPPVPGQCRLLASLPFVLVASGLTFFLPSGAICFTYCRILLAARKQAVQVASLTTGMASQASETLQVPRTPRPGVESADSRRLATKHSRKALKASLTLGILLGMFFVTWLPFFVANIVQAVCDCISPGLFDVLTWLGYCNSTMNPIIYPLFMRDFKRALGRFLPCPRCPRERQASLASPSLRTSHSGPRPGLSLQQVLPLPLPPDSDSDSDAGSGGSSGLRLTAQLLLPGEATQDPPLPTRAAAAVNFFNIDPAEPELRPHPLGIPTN

| SMILES | Ki |
| --- | --- |
| CCCS(=O)(=O)n1cc(CCN(C)C)c2ccccc21 | 280 nM |
| COc1ccc(Cn2cc(CCN(C)C)c3ccccc32)cc1 | 132 nM |
| Nc1ccc(Cn2ccc3ccccc32)cc1 | 8200 nM |
| COc1ccc(S(=O)(=O)n2cc(CCN(C)C)c3ccccc32)cc1 | 13 nM |
| CN(C)CCc1cn(S(=O)(=O)c2ccc(C(F)(F)F)cc2)c2ccccc12 | 1.9 nM |
| CCCCCCCCS(=O)(=O)n1cc(CCN(C)C)c2ccccc21 | 440 nM |
| CN(C)CCc1cn(S(=O)(=O)C2CCCCC2)c2ccccc12 | 210 nM |
| CN(C)CCc1cn(Cc2ccc(N)cc2)c2ccccc12 | 44 nM |
| CN(C)CCc1cn(Cc2ccc(C(F)(F)F)cc2)c2ccccc12 | 445 nM |
| Cc1ccc(S(=O)(=O)n2cc(CCN(C)C)c3ccccc32)cc1 | 2.5 nM |
| CN(C)CCc1cn(Cc2ccc(Cl)cc2)c2ccccc12 | 20 nM |
| CCCCCS(=O)(=O)n1cc(CCN(C)C)c2ccccc21 | 220 nM |
| Nc1ccc(S(=O)(=O)n2c3c(c4ccccc42)CCCC3)cc1 | 29 nM |
| CN(C)CC1CCCc2c1c1ccccc1n2S(=O)(=O)c1ccccc1 (stereo not given) | 1.5 nM |
| CC(C)S(=O)(=O)n1cc(CCN(C)C)c2ccccc21 | 590 nM |
| Cc1ccc(Cn2cc(CCN(C)C)c3ccccc32)cc1 | 29 nM |
| Nc1ccc(Cn2c3c(c4ccccc42)CCCC3)cc1 | 6000 nM |
| CN(C)CCc1cn(S(=O)(=O)c2ccc(Cl)cc2)c2ccccc12 | 94 nM |
| CCCCS(=O)(=O)n1cc(CCN(C)C)c2ccccc21 | 135 nM |
| CN(C)CC1CCCc2c1c1ccccc1n2Cc1ccccc1 (stereo not given) | 136 nM |
